Results published in patent publication US7893081B2, “Tyrosine kinase inhibitors” (Merck & Co., Inc., priority 2007, dated 2011).
Where a name gives a salt, the structure may show the parent alone.

What was measured:
Hygroscopicity (25° C.) = assay type: physicochemical; details: up to 80% RH
[1] = Solubility in water of the salt forms of Compound 1; assay type: physicochemical; details: for Native pH: pH of the aqueous solubility sample
human c-Met = human c-Met (Homo sapiens, UniProt P08581); experiment: biochemical
Protocol: The procedure for determining the potency of a compound to inhibit c-Met kinase comprises the following steps: • 1. Prepare 3-fold serial diluted compound solutions in 100% dimethyl sulfoxide (DMSO) at 20× of the desired final concentrations in a 96 well plate. • 2. […] In a black assay plate, add 2.5 μl of compound solution (or DMSO) and 37.5 μl of master reaction mix per well. Initiate the kinase reaction by adding 10 μl of 0.25 mM MgATP per well. Allow the reactions to proceed for 80 min at room temperature. The final conditions for the reaction are 0.2 nM c-Met, 0.5 μM substrate, 50 μM MgATP, 5 mM MgCl2, 100 mM NaCl, 2 mM DTT, 0.1 mg/ml BSA, 50 mM Tris (pH 7.4) and 5% DMSO. • 4. […] Read HTRF signals on a Victor reader (PerkinElmer) in HTRF mode after 60 min. • 6.

[2] = Chemical and physical stability at 40° C./75% relative humidity; assay type: physicochemical; details: 6 Months at 40° C./75% relative humidity (RH)
[3] = listed as Crystalline potassium salt, potassium salt monohydrate
[4] = listed as Crystalline Sodium salt, sodium salt dihydrate

Sequence of human c-Met (P08581 956-1390 limits assumed): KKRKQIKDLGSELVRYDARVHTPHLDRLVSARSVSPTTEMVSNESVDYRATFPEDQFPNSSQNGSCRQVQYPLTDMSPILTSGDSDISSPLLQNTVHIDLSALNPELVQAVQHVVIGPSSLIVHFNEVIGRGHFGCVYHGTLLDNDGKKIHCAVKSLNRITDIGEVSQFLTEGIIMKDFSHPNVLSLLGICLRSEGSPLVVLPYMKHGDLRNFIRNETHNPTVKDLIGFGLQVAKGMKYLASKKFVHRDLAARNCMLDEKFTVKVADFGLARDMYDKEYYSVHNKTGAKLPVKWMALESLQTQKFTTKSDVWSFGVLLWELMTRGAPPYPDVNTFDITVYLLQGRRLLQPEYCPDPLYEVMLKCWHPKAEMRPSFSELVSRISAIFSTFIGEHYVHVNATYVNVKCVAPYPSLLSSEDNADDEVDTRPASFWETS

In the case of `CN(C[C@@H]1COCCO1)S(=O)(=O)Nc1ccc2ccc3ncc(-c4cnn(C)c4)cc3c(=O)c2c1` [Compound 1 potassium salt monohydrate, N-[(2R)-1,4-dioxan-2-ylmethyl]-N-methyl-N′-[3-(1-methyl-1H-pyrazol-4-yl)-5-oxo-5H-benzo[4,5]cyclohepta[1,2-b]pyridin-7-yl]sulfamide potassium salt monohydrate], the “Hygroscopicity (25° C.)” value (Hygroscopicity (25° C.); [3]) is reported as 0.81% up, the “Native pH” value [1, 3] is reported as “pH = 10.7” and the Solubility in water [1, 3] is reported as over 170 mg/mL.

In the case of `CN(C[C@@H]1COCCO1)S(=O)(=O)Nc1ccc2ccc3ncc(-c4cnn(C)c4)cc3c(=O)c2c1` [Compound 1, N-[(2R)-1,4-dioxan-2-ylmethyl]-N-methyl-N′-[3-(1-methyl-1H-pyrazol-4-yl)-5-oxo-5H-benzo[4,5]cyclohepta[1,2-b]pyridin-7-yl]sulfamide], the IC50 (human c-Met) is reported as at least 50 µM, the “Hygroscopicity (25° C.)” value (Hygroscopicity (25° C.); listed as Free Acid) is reported as 0.4% up to and the Solubility in water ([1]; listed as Free Acid) is reported as 0.003 mg/mL.

For `CN(C[C@@H]1COCCO1)S(=O)(=O)Nc1ccc2ccc3ncc(-c4cnn(C)c4)cc3c(=O)c2c1` [Compound 1 sodium salt dihydrate, N-[(2R)-1,4-dioxan-2-ylmethyl]-N-methyl-N′-[3-(1-methyl-1H-pyrazol-4-yl)-5-oxo-5H-benzo[4,5]cyclohepta[1,2-b]pyridin-7-yl]sulfamide sodium salt dihydrate], the “chemical and physical stability” value [2] was “chemically and physically stable”, the “Hygroscopicity (25° C.)” value (Hygroscopicity (25° C.); [4]) was 0.14% up and the “Native pH” value [1, 4] was “pH = 10.5”. The Solubility in water [1, 4] was over 400 mg/mL.
